Experimental data published in publication PMC8043142 (Journal of medicinal chemistry, 2021).

Key:
[1] = target: disulfide stabilized HIV-1NL4-3 CA hexamer (Human immunodeficiency virus type 1 group M subtype B, UniProt P12493, A146C/E177C/M317A/W316A); experiment: SPR direct interaction analysis with immobilized CA hexamer; assay type: binding; details: for kd: SPR, 25 °C, 1:1 binding model
[2] = Metabolic stability in human liver microsomes; details: half-life relative to S-PF-74
[3] = enantiomerically pure compounds

Structure (SMILES) | binding to CA hexamer via SPR (in words) [1, 3] | kd [1, 3] | other results
Cc1[nH]c2ccccc2c1CC(=O)NC(Cc1ccccc1)C(=O)N(C)c1ccc2[nH]ncc2c1 (centres unmarked) [CX16, N-(1H-indazol-5-yl)-N-methyl-2-(2-(2-methyl-1H-indol-3-yl)acetamido)-3-phenylpropanamide] |  |  | kd ([1]; racemic compounds): 1.21 ± 0.037 × 10^−2 s^−1
CN(C(=O)C(Cc1ccccc1)NC(=O)Cc1n[nH]c2c(N)cccc12)c1ccc2[nH]ncc2c1 (centres unmarked) [CX17, 2-(2-(7-amino-1H-indazol-3-yl)acetamido)-N-(1H-indazol-5-yl)-N-methyl-3-phenylpropanamide] |  |  | IC50 relative to predicted and experimentally determined affinity (HIV-1 pseudoviruses; racemic compound, IC50 higher than affinity): approximately 5 fold
Cc1[nH]c2ccccc2c1CC(=O)NC(Cc1ccccc1)C(=O)N(C)c1ccccc1 (centres unmarked) [PF-74, reference compound] |  |  | kd ([1]; racemic compounds): 2.93 ± 0.182 × 10^−2 s^−1
CN(C(=O)[C@@H](Cc1ccccc1)NC(=O)Cc1c[nH]c2c(N)cccc12)c1ccccc1 [R-CX15, (R)-2-(2-(7-Amino-1H-indol-3-yl)acetamido)-N-methyl-N,3-diphenylpropanamide] | little to no binding interactions |  | 
Cc1[nH]c2ccccc2c1CC(=O)N[C@H](Cc1ccccc1)C(=O)N(C)c1ccc2[nH]ncc2c1 [R-CX16, (R)-N-(1H-Indazol-5-yl)-N-methyl-2-(2-(2-methyl-1H-indol-3-yl)acetamido)-3-phenylpropanamide] | little to no binding interactions |  | 
CN(C(=O)[C@@H](Cc1ccccc1)NC(=O)Cc1n[nH]c2c(N)cccc12)c1ccc2[nH]ncc2c1 [R-CX17, (R)-2-(2-(7-amino-1H-indazol-3-yl)acetamido)-N-(1H-indazol-5-yl)-N-methyl-3-phenylpropanamide] | little to no binding interactions |  | 
Cc1[nH]c2ccccc2c1CC(=O)N[C@H](Cc1ccccc1)C(=O)N(C)c1ccccc1 [R-PF-74, (R)-N-methyl-2-(2-(2-methyl-1H-indol-3-yl)acetamido)-N,3-diphenylpropanamide, reference compound] | little to no binding interactions |  | 
CN(C(=O)[C@H](Cc1ccccc1)NC(=O)Cc1c[nH]c2c(N)cccc12)c1ccccc1 [S-CX15, (S)-2-(2-(7-Amino-1H-indol-3-yl)acetamido)-N-methyl-N,3-diphenylpropanamide] | robust binding | 6.60 ± 0.328 × 10^−2 s^−1 | Fold Increase (over S-PF-74) [2]: 30.8 fold
Cc1[nH]c2ccccc2c1CC(=O)N[C@@H](Cc1ccccc1)C(=O)N(C)c1ccc2[nH]ncc2c1 [S-CX16, (S)-N-(1H-Indazol-5-yl)-N-methyl-2-(2-(2-methyl-1H-indol-3-yl)acetamido)-3-phenylpropanamide] | robust binding | 1.09 ± 0.043 × 10^−2 s^−1 | improvement in affinity over S-PF-74 [1, 3]: > 2 fold; Fold Increase (over S-PF-74) [2]: 2.0 fold
CN(C(=O)[C@H](Cc1ccccc1)NC(=O)Cc1n[nH]c2c(N)cccc12)c1ccc2[nH]ncc2c1 [S-CX17, (S)-2-(2-(7-amino-1H-indazol-3-yl)acetamido)-N-(1H-indazol-5-yl)-N-methyl-3-phenylpropanamide] | robust binding | 9.66 ± 0.145 × 10^−2 s^−1 | change of antiviral potency relative to parental compound (HIV-1 pseudoviruses; slightly diminished potency): ~3.5 fold; Fold Increase (over S-PF-74) [2]: 204 fold
Cc1[nH]c2ccccc2c1CC(=O)N[C@@H](Cc1ccccc1)C(=O)N(C)c1ccccc1 [S-PF-74, (S)-N-methyl-2-(2-(2-methyl-1H-indol-3-yl)acetamido)-N,3-diphenylpropanamide, reference compound] | robust binding | 2.92 ± 0.111 × 10^−2 s^−1 | 
